± gives the standard deviation of the reports.
Structure (SMILES) | glass transition temperature
*c1cccc(*)c1 (repeat unit) | 104.93 °C
*CC(COCC=C)S* (repeat unit) | -59.00 °C
*CCOCCOC(=O)CCCC(=O)O* (repeat unit) | -55.00 °C
*CC(*)c1ccc2ccccc2c1 (repeat unit) | 146.50 °C
*CC(COC(C)C)O* (repeat unit) | -67.00 °C
*c1ccc2c(c1)C(=O)N(c1c(C)cc(-c3cc(C)c(-c4cc(C)c(N5C(=O)c6ccc(C(*)(C(F)(F)F)C(F)(F)F)cc6C5=O)c(C)c4)cc3C)cc1C)C2=O (repeat unit) | 361.00 °C
*/C=C/[Si](*)(c1ccccc1)c1ccccc1 (repeat unit) | -9.00 °C
*O[Si](*)(C)CCCCCC (repeat unit) | -110.8 °C
*c1ccc(Oc2c(C)cc(Cc3cc(C)c(Oc4ccc(-n5c(=O)c6cc7c(=O)n(*)c(=O)c7cc6c5=O)cc4)c(C)c3)cc2C)cc1 (repeat unit) | 299.50 °C
*CC(*)C(=O)OCCCSC (repeat unit) | -65.00 °C
*N(C)[Si](*)(C)C (repeat unit) | -20.00 °C
*CC(*)C(=O)NCCCCCC(=O)O (repeat unit) | 68.00 °C
*CCC(CC)CC(C)CNC(=O)c1ccc(C(=O)N*)cc1 (repeat unit) | 139.00 °C
*CCCCCCCCNC(=O)CCP(C)(=O)CCC(=O)N* (repeat unit) | 52.00 °C
*O[Si](C=C)(C=C)O[Si](C)(C)c1ccc([Si](*)(C)C)cc1 (repeat unit) | -71.00 °C
*CCN(*)C(=O)c1c(F)cc(F)c(F)c1F (repeat unit) | 122.00 °C
*CC(C)(C)COC(=O)NC(=O)c1ccc(C(=O)NC(=O)O*)cc1 (repeat unit) | 102.00 °C
*O[Si](*)(C)CCCCC (repeat unit) | -112.00 °C
*CC(*)C(=O)OCCCOc1ccc(-c2ccc(C#N)cc2)cc1 (repeat unit) | 54.2 °C
*CC(*)(C)C(=O)OCCOc1ccc(/N=N/c2ccc(OC)cc2)cc1 (repeat unit) | 109.00 °C
*c1ccc(Oc2ccc(C3(c4ccc(Oc5ccc(N6C(=O)c7ccc(Oc8ccc(C9(c%10ccc(Oc%11ccc%12c(c%11)C(=O)N(*)C%12=O)cc%10)CCCCCCCCCCC9)cc8)cc7C6=O)cc5)cc4)CC4CCC3C4)cc2)cc1 (repeat unit) | 259.00 °C
*Oc1c(C)cc(C(=O)c2ccc(*)cc2)cc1C (repeat unit) | 200.00 °C
*CC(*)(CC(=O)OC1CCCCCCC1)C(=O)OC1CCCCCCC1 (repeat unit) | 124.00 °C
*c1ccc(-c2ccc(-n3c(=O)c4cc5c(=O)n(*)c(=O)c5c(C(F)(F)F)c4c3=O)cc2C)c(C)c1 (repeat unit) | 373.00 °C
*CC(c1ccccc1)C1C(=O)OC(=O)C1* (repeat unit) | 212.00 °C
*CC(*)c1ccc(CCCCCCCC)cc1 (repeat unit) | -45.00 °C

The remaining lines, values ahead:

glass transition temperature | Structure (SMILES)
258.00 °C | *C(=O)c1ccc2c(c1)C(=O)N(c1cccc(Cc3ccccc3N3C(=O)c4ccc(*)cc4C3=O)c1)C2=O (repeat unit)
220.00 °C | *c1ccc(-c2ccc(N(c3ccccc3)c3ccc(-c4ccc(N(c5ccccc5)c5ccc(-c6ccc(-n7c(=O)c8cc9c(=O)n(*)c(=O)c9cc8c7=O)cc6)cc5)cc4)cc3)cc2)cc1 (repeat unit)
340.00 °C | *c1ccc(C2(c3ccc(-c4cc(-c5ccccc5)c5cc(Oc6ccc7nc(*)cc(-c8ccccc8)c7c6)ccc5n4)cc3)c3ccccc3C(=O)c3ccccc32)cc1 (repeat unit)
128.00 °C | *NC1CC(C)(C)CC(C)(CNC(=O)c2cc(NC(=O)C(C(C)CC)N3C(=O)c4ccccc4C3=O)cc(C(*)=O)c2)C1 (repeat unit)
182.00 °C | *Oc1ccc(C(=O)Nc2cc(NC(=O)c3ccc(*)cc3)cc(C(=O)OCCOC(=O)/C=C/c3ccc(N(C)C)cc3)c2)cc1 (repeat unit)
204.00 °C | *c1ccc2c(c1)C(=O)N(c1ccc(OC(CCC)COc3ccc(N4C(=O)c5ccc(C(*)(C(F)(F)F)C(F)(F)F)cc5C4=O)cc3)cc1)C2=O (repeat unit)
50.00 °C | *Nc1ccc(Cc2ccc(NC(=O)NCCCCCCCCNC(*)=O)cc2)cc1 (repeat unit)
120.00 °C | *CC(O)COc1ccc(C(=O)c2ccc(OCC(O)COc3ccc(C(C)(C)c4ccc(O*)cc4)cc3)cc2)cc1 (repeat unit)
164.00 °C | *CC(*)(C)C(=O)OCCn1c2ccccc2c2cc(/N=N/c3ccc([N+](=O)[O-])cc3)ccc21 (repeat unit)
331.00 °C | *C(=O)c1ccc2c(c1)C(=O)N(c1ccc(-c3cc(-c4ccc(OC)cc4)cc(-c4ccc(N5C(=O)c6ccc(*)cc6C5=O)cc4)n3)cc1)C2=O (repeat unit)
300.00 ± 9 °C | *C(=O)c1ccc2c(c1)C(=O)N(c1cccc(N3C(=O)c4ccc(*)cc4C3=O)c1)C2=O (repeat unit)
148.00 °C | *Oc1ccc(Oc2ccc(C(=O)c3cccc(C(=O)c4ccc(*)cc4)c3)cc2)cc1 (repeat unit)
244.00 °C | *c1cccc(C(=O)Nc2ccc(Oc3ccc(Oc4ccc(Oc5ccc(NC(=O)c6cccc(N7C(=O)c8ccc(-c9ccc%10c(c9)C(=O)N(*)C%10=O)cc8C7=O)c6)cc5)cc4)cc3)cc2)c1 (repeat unit)
90.00 °C | *CC(O)COc1ccc(C(C)(C)c2ccc(OCC(O)COc3cccc(NC(=O)CCCCCCCCCCC(=O)Nc4cccc(O*)c4)c3)cc2)cc1 (repeat unit)
165.00 °C | *Oc1ccc(Oc2ccc(NC(=O)c3ccc(Oc4ccc(C(C)(C)c5ccc(C(C)(C)c6ccc(Oc7ccc(C(=O)Nc8ccc(*)cc8)cc7)cc6)cc5)cc4)cc3)cc2)cc1 (repeat unit)
278.00 °C | *C(=O)Nc1ccc(C2(c3ccc(NC(=O)c4ccc5c(c4)C(=O)N(c4ccc(Oc6cccc(Oc7ccc(N8C(=O)c9ccc(*)cc9C8=O)cc7)c6)cc4)C5=O)cc3)c3ccccc3-c3ccccc32)cc1 (repeat unit)
180.00 °C | *CCCCOC(=O)c1ccc(-c2ccc(-c3ccc(C(=O)O*)cc3)cc2)cc1 (repeat unit)
195.00 °C | */C=C(\C#N)C(=O)NC1CCCCC1NC(=O)/C(C#N)=C/c1ccc(/C=C/c2ccc(N(CC)Cc3ccccc3CN(CC)c3ccc(/C=C/c4ccc(*)s4)cc3)cc2)s1 (repeat unit)
156.00 °C | *O[Si](*)(C)CCc1cc(-c2nnc(-c3ccc(OCCCCCCCCCCCC)cc3)o2)ccc1-c1nnc(-c2ccc(OCCCCCCCCCCCC)cc2)o1 (repeat unit)
245.00 °C | *C(=O)c1ccc2c(c1)C(=O)N(c1ccc(Oc3cccc(Oc4ccc(N5C(=O)c6ccc(*)cc6C5=O)cc4)c3C#N)cc1)C2=O (repeat unit)
255.00 °C | *c1ccc(Oc2ccccc2Oc2ccc(N3C(=O)c4ccc(S(=O)(=O)c5ccc6c(c5)C(=O)N(*)C6=O)cc4C3=O)cc2C(F)(F)F)c(C(F)(F)F)c1 (repeat unit)
